The source made the active and inactive calls. The rule behind the calls is not given here.
What was measured:
Coagulation factor X = Coagulation factor X (Homo sapiens, UniProt P00742); assay: Binding affinity to human factor 10a assessed as release of p-nitroaniline after 10 to 120 mins by spectrophotometric analysis
Coagulation factor VII = biological target: T1, Coagulation factor VII (Homo sapiens, UniProt P08709); assay: Binding affinity to human factor 7a assessed as release of p-nitroaniline after 10 to 120 mins by spectrophotometric analysis
T1 sequence (P08709 whole entry): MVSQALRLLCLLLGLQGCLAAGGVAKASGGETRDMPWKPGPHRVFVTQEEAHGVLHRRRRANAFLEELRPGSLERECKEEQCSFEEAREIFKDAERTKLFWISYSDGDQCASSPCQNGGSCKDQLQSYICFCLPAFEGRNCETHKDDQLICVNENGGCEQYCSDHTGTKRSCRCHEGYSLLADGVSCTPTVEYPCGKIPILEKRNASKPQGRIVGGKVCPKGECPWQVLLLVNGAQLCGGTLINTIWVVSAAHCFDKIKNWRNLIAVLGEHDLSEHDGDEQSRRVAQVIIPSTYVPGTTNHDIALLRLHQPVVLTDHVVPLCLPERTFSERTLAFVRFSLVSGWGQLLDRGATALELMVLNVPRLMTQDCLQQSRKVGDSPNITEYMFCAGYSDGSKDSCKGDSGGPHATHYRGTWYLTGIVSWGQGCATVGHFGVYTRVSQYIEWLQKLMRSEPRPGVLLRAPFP

Coagulation factor XI [1] = biological target: T2, Coagulation factor XI (Homo sapiens, UniProt P03951); assay: Binding affinity to human factor 11a assessed as release of p-nitroaniline after 10 to 120 mins by spectrophotometric analysis
T2 sequence (P03951 19-387 limits assumed): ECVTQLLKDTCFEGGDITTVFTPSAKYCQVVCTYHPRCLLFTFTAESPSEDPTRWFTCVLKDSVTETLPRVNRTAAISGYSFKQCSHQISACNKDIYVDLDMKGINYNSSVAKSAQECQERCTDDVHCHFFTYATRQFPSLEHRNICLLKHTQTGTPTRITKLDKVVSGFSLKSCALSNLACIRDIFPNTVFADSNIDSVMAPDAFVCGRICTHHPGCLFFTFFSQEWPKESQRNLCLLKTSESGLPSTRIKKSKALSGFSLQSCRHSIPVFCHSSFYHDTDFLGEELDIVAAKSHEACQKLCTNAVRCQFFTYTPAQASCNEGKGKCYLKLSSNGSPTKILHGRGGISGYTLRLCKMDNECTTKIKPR
T2 sequence (P03951 388-625 limits assumed): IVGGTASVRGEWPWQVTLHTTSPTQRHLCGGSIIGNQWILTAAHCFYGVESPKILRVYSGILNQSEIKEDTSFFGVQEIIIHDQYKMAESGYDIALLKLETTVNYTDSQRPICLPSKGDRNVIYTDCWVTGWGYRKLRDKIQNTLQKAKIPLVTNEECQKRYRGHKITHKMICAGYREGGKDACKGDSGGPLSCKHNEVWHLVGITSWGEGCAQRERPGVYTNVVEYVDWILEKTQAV

Homo sapiens [2] = species: Homo sapiens; assay: Selectivity ratio of Ki for human factor 7a to Ki for human factor 11a
Homo sapiens [3] = species: Homo sapiens; assay: Selectivity ratio of Ki for human factor 10a to Ki for human factor 11a
Plasma = assay: Anticoagulant activity in human plasma assessed as concentration required to double activated partial thromboplastin time; type: functional
Oryctolagus cuniculus = assay: Antithrombotic activity in rabbit arteriovenous-shunt thrombosis model assessed as inhibition of clot formation compound administered as single bolus dose followed by five continuous infusion dose; type: functional
Coagulation factor XI [4] = biological target: T2, Coagulation factor XI; assay: Mixed-type inhibition of human factor 11a
Coagulation factor XI [5] = biological target: T2, Coagulation factor XI; assay: Competitive inhibition of human factor 11a assessed as release of p-nitroaniline after 10 to 120 mins by Michaelis-Menten equation analysis

Chain of Coagulation factor X (P00742 41-179 limits assumed): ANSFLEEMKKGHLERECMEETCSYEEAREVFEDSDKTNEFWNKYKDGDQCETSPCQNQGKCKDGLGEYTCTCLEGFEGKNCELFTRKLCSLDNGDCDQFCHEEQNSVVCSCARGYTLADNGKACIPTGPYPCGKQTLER
Chain of Coagulation factor X (P00742 235-488 limits assumed): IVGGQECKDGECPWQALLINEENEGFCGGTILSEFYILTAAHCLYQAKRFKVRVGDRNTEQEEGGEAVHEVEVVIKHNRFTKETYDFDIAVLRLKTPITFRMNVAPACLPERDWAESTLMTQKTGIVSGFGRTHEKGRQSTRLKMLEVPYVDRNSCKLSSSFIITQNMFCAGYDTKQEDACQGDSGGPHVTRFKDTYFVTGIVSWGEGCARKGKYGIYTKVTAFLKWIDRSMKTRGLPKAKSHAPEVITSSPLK

Row | Compound | Ki (Coagulation factor X) | Ki (Coagulation factor VII) | Ki (Coagulation factor XI [1]) | Ratio Ki (Homo sapiens [2]) | Ratio Ki (Homo sapiens [3]) | EC (Plasma) | inhibition (Oryctolagus cuniculus) | inhibition (Coagulation factor XI [4]) | inhibition (Coagulation factor XI [5])
1 | N=C(N)c1ccc2c(c1)[C@@H](c1ccccc1)C[C@@H](c1cc(N)cc(-c3ccccc3C(=O)O)c1)N2 (racemic) | 57 nM | 41 nM | 7.6 nM |  |  |  |  |  | 
2 | N=C(N)c1ccc2c(c1)[C@@H](c1ccccc1)C[C@@H](c1ccccc1-c1ccc(C(=O)O)cc1)N2 (racemic) |  |  | 2400 nM |  |  |  |  |  | 
3 | CC(C)CNC(=O)c1ccc(-c2ccccc2[C@@H]2C[C@H](c3ccccc3)c3cc(C(=N)N)ccc3N2)c(C(=O)O)c1 (racemic) | 1100 nM | 95 nM | 25 nM | 4 | 40 |  |  |  | 
4 | CC(C)NC(=O)c1ccc(-c2cccc([C@@H]3C[C@](C)(c4ccccc4)c4cc(C(=N)N)ccc4N3)c2)c(C(=O)O)c1 (racemic) | 1310 nM | 1770 nM | 207 nM |  |  |  |  |  | 
5 | CC(C)CC(=O)Nc1cc(-c2ccc(C(N)=O)cc2C(=O)O)cc(C2CC(C)(c3ccccc3)c3cc(C(=N)N)ccc3N2)c1 (single isomer, unassigned; enantiomer 1) | 5670 nM | > 10900 nM | 230 nM |  |  |  |  |  | 
6 | CC[C@]1(c2ccccc2)C[C@@H](c2cccc(-c3ccc(C(=O)O)cc3C(=O)O)c2)Nc2ccc(C(=N)N)cc21 (racemic) |  |  | 830 nM |  |  |  |  |  | 
7 | N=C(N)c1ccc2c(c1)[C@@H](c1ccccc1)C[C@@H](c1ccccc1-c1ccccc1C(=O)O)N2 (racemic) | 1940 nM | 2200 nM | 110 nM |  |  |  |  |  | 
8 | CC(C)CC(=O)Nc1cc(-c2ccc(C(N)=O)cc2C(=O)O)cc([C@@H]2C[C@](C)(c3ccccc3)c3cc(C(=N)N)ccc3N2)c1 (racemic) | 784 nM | 1010 nM | 0.59 nM |  |  | 6.1 µM |  |  | 
9 | CC1(c2ccccc2)CC(c2cccc(-c3ccc(C(N)=O)cc3C(=O)O)c2)Nc2ccc(C(=N)N)cc21 (single isomer, unassigned; enantiomer 2) | > 15000 nM | > 15000 nM | 335 nM |  |  |  |  |  | 
10 | CNC(=O)c1ccc(-c2cccc([C@@H]3C[C@](C)(c4ccccc4)c4cc(C(=N)N)ccc4N3)c2)c(C(=O)O)c1 (racemic) | 4100 nM | 1960 nM | 154 nM |  |  |  |  |  | 
11 | CC(=O)Nc1ccc(-c2cccc([C@@H]3C[C@](C)(c4ccccc4)c4cc(C(=N)N)ccc4N3)c2)c(C(=O)O)c1 (racemic) | 5810 nM | 705 nM | 110 nM |  |  |  |  |  | 
12 | CC(C)(C)NC(=O)c1ccc(-c2cccc([C@@H]3C[C@](C)(c4ccccc4)c4cc(C(=N)N)ccc4N3)c2)c(C(=O)O)c1 (racemic) | 6400 nM | 1290 nM | 540 nM |  |  |  |  |  | 
13 | COC(=O)c1ccc(-c2cccc([C@@H]3C[C@](C)(c4ccccc4)c4cc(C(=N)N)ccc4N3)c2)c(C(=O)O)c1 (racemic) | 606 nM | 442 nM | 79 nM |  |  |  |  |  | 
14 | CCCC(=O)Nc1cc(-c2ccc(C(N)=O)cc2C(=O)O)cc([C@@H]2C[C@](C)(c3ccccc3)c3cc(C(=N)N)ccc3N2)c1 (racemic) | 641 nM | 520 nM | 0.3 nM |  |  | 4.1 µM |  |  | 
15 | C[C@]1(c2ccccc2)C[C@H](c2cccc(-c3ccc(C(N)=O)cc3C(=O)O)c2)Nc2ccc(C(=N)N)cc21 (racemic) | 8350 nM | 16300 nM | 26 nM |  |  |  |  |  | 
16 | CN(C)Cc1ccc(-c2cccc([C@@H]3C[C@](C)(c4ccccc4)c4cc(C(=N)N)ccc4N3)c2)c(C(=O)O)c1 (racemic) | > 15000 nM | 610 nM | 466 nM |  |  |  |  |  | 
17 | C[C@]1(c2ccccc2)C[C@@H](c2cccc(-c3ccc(C(N)=O)cc3C(=O)O)c2)Nc2ccc(C(=N)N)cc21 (racemic) | 3000 nM | 280 nM | 1.5 nM |  |  | 8.6 µM |  |  | 

Row | Compound | Ki (Coagulation factor X) | Ki (Coagulation factor VII) | Ki (Coagulation factor XI [1]) | Ratio Ki (Homo sapiens [2]) | Ratio Ki (Homo sapiens [3]) | EC (Plasma) | inhibition (Oryctolagus cuniculus) | inhibition (Coagulation factor XI [4]) | inhibition (Coagulation factor XI [5])
18 | C[C@]1(c2ccccc2)C[C@@H](c2cccc(-c3ccc(N)cc3C(=O)O)c2)Nc2ccc(C(=N)N)cc21 (racemic) | 3980 nM | 275 nM | 64 nM |  |  |  |  |  | 
19 | C[C@]1(c2ccccc2)C[C@@H](c2cccc(-c3ccccc3C(=O)O)c2)Nc2ccc(C(=N)N)cc21 (racemic) | 6700 nM | 3060 nM | 110 nM |  |  |  |  |  | 
20 | C[C@]1(c2ccccc2)C[C@@H](c2cccc(-c3ccc(C(=O)O)cc3C(=O)O)c2)Nc2ccc(C(=N)N)cc21 (racemic) | 9300 nM | 2600 nM | 61 nM |  |  |  |  |  | 
21 | CCC(=O)Nc1cc(-c2ccc(C(N)=O)cc2C(=O)O)cc([C@@H]2C[C@](C)(c3ccccc3)c3cc(C(=N)N)ccc3N2)c1 (racemic) | 1480 nM | 450 nM | 0.69 nM |  |  | 3.4 µM |  |  | 
22 | CNC(=O)Nc1ccc(-c2cccc([C@@H]3C[C@](C)(c4ccccc4)c4cc(C(=N)N)ccc4N3)c2)c(C(=O)O)c1 (racemic) | 1140 nM | 451 nM | 15 nM |  |  |  |  |  | 
23 | C[C@]1(c2ccccc2)C[C@@H](c2cc(N)cc(-c3ccc(C(N)=O)cc3C(=O)O)c2)Nc2ccc(C(=N)N)cc21 (racemic) | 2250 nM | 56 nM | 0.64 nM |  |  | 1.2 µM |  |  | 
24 | CC(C)CC(=O)Nc1cc(-c2ccc(C(N)=O)cc2C(=O)O)cc(C2CC(C)(c3ccccc3)c3cc(C(=N)N)ccc3N2)c1 (single isomer, unassigned; enantiomer 2) |  |  |  |  |  |  | Dose-dependent effect | Active | Active
25 | CC1(c2ccccc2)CC(c2cccc(-c3ccc(C(N)=O)cc3C(=O)O)c2)Nc2ccc(C(=N)N)cc21 (single isomer, unassigned; (+)) [listing 1 of 2 here] |  |  |  | 200 | > 1000 |  |  |  | 
26 | C[C@]1(c2ccccc2)C[C@@H](c2cccc(-c3ccc(NS(C)(=O)=O)cc3C(=O)O)c2)Nc2ccc(C(=N)N)cc21 (racemic) | > 15000 nM | 237 nM | 37 nM |  |  |  |  |  | 
27 | CCC[C@]1(c2ccccc2)C[C@@H](c2cccc(-c3ccc(C(=O)O)cc3C(=O)O)c2)Nc2ccc(C(=N)N)cc21 (racemic) |  |  | 1960 nM |  |  |  |  |  | 
28 | N=C(N)c1ccc2c(c1)[C@@H](c1ccccc1)C[C@@H](c1cccc(-c3ccc(C(=O)O)cc3C(=O)O)c1)N2 (racemic) | 130 nM | 89 nM | 3.9 nM | 20 | 30 |  |  |  | 
29 | CC1(c2ccccc2)CC(c2cccc(-c3ccc(C(N)=O)cc3C(=O)O)c2)Nc2ccc(C(=N)N)cc21 (single isomer, unassigned; (+)) [listing 2 of 2 here] | 2330 nM | 86 nM | 0.39 nM |  |  |  |  |  | 
30 | C[C@]1(c2ccccc2)C[C@@H](c2cccc(-c3ccc(C#N)cc3C(=O)O)c2)Nc2ccc(C(=N)N)cc21 (racemic) | 2060 nM | 867 nM | 48 nM |  |  |  |  |  | 
31 | N=C(N)c1ccc2c(c1)[C@@H](c1ccccc1)C[C@@H](c1ccccc1-c1ccc(C(=O)O)cc1C(=O)O)N2 (racemic) | 970 nM | 290 nM | 8.5 nM | 30 | 100 |  |  |  | 
32 | CC(=O)Nc1cc(-c2ccc(C(N)=O)cc2C(=O)O)cc([C@@H]2C[C@](C)(c3ccccc3)c3cc(C(=N)N)ccc3N2)c1 (racemic) | 1810 nM | 230 nM | 1 nM |  |  | 2.1 µM |  |  | 
33 | CC(C)CNC(=O)c1ccc(-c2cccc([C@@H]3C[C@H](c4ccccc4)c4cc(C(=N)N)ccc4N3)c2)c(C(=O)O)c1 (racemic) | 24 nM | 25 nM | 23 nM |  |  |  |  |  | 
34 | C[C@]1(c2ccccc2)C[C@@H](c2cc(NC(=O)C3CC3)cc(-c3ccc(C(N)=O)cc3C(=O)O)c2)Nc2ccc(C(=N)N)cc21 (racemic) | 880 nM | 474 nM | 0.72 nM |  |  | 4.5 µM |  |  | 
